In US20040162247A1, “Therapeutic agent or osteoporosis comprising an active ingredient of quercetin derivatives” (priority 2000, published 2004):

What was measured:
ovariectomized rats [1] = experiment: Trabecular bone area of lumbars in ovariectomized rats;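 for Change Rate (%) of TBA of lumbars, of control group: control group rats were ovariectomized and are not the sham group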; type: in vivo, Female SD (Sprague-Dawley) rats; details: OVX rats, 9 weeks i.p. (E2 1 μg/kg/day; quercetin, genistein 10 mg/kg/day); for Change Rate (%) of TBA of lumbars, of control group: control group = 100
Procedure: (§1) Trabecular bone area (TBA) of lumbar and tibia removed from the rats of each group which was treated with various agents for 9 weeks were measured as follows: that is, using a digitalizer of quantitative image analysis system (Wild Leitz Co.), image of each trabecula was obtained on computer monitor by drawing a contour of the trabecula, and then, using a computer, calculated were average areas of trabeculae within a rectangle of 2×10^6 μm^2 area wherein the width is about ⅔ of the length of growth plate which located underneath of growth plate at proximity of tibia. Also, following the number of trabeculae within the rectangle were obtained, average area was multiplied by the number of trabeculae to obtain trabecular bone area of each sample bone, which was analyzed statistically (see: Table 5).
TBAs of lumbars removed from the animal treated with test agents for 9 weeks were measured employing the same method above (see: Table 6).

ovariectomized rats [2] = experiment: Trabecular bone area of tibia in ovariectomized rats;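 for Change Rate (%) of TBA of tibia, of control group: control group rats were ovariectomized and are not the sham group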; type: in vivo, Female SD (Sprague-Dawley) rats; details: OVX rats, 9 weeks i.p. (E2 1 μg/kg/day; quercetin, genistein 10 mg/kg/day); for Change Rate (%) of TBA of tibia, of control group: control group = 100
Procedure: as §1

ovariectomized rats [3] = experiment: Biochemical parameters in plasma of ovariectomized rats; type: in vivo, Female SD (Sprague-Dawley) rats; details: rat, in vivo
Procedure: (§2) When test agents were administered, for a certain period of time before and after administration, 1.5 ml of blood was sampled from tail vein using a catheter (B.D Co.: 24 G) and subjected to complete blood count (Coulter Co.: JT) and biochemical analyses of plasma (Crone Co.: Airon® 200). During autopsy, blood was sampled from caudal venae cavae and subjected to the analyses above. And then, each sample was frozen to store for measurement of trabecular bone area of femur and examination of internal organs.
Since blood reflects the condition of body, safety of quercetin in the body was evaluated by measuring biochemical parameters: that is, blood samples were obtained from the rat prior to operation, one week after operation, and 10 weeks after operation, and measured were levels of alkaline phosphatase (ALP), calcium, inorganic phosphate, blood urea nitrogen (BUN), creatinin, total cholesterol, HDL-cholesterol and LDL-cholesterol (see: Table 8).

[4] = system: ALP activity in osteoblasts (Saos-2); experiment: Alkaline phosphatase (ALP) activity in osteoblasts; type: cell-based, human; details: for ALP activity (% of control group): Saos-2, 3 days
Procedure: Since osteoblasts have cell specific alkaline phosphatase activity, the effect of quercetin of the invention on ALP activity in osteoblasts was evaluated as follows: the number of cells, concentration of tested agent, and culture condition were same as those used in MTT experiment of Example 1-2, and cells were harvested after 3 day-incubation. Genistein was used as a comparative agent. ALP activity was evaluated by analysing changes of OD at 405 nm result from hydrolysis of p-nitrophenylphosphate to p-nitrophenol and phosphate (see: Table 1).

ovariectomized rats [5] = experiment: Complete blood count in ovariectomized rats; type: in vivo, Female SD (Sprague-Dawley) rats; details: rat, in vivo
Procedure: as §2
Complete blood count which reflects the condition and abnormality of the body was measured to find out abnormality in test animals caused by administrtion of agents. That is, to find out changes in hematopoiesis of test rats, measured were red blood cell (RBC) count, concentration of hemoglobin (Hb) and hematocrit (Ht) of-blood samples obtained from the rats prior to operation and the rats 10 weeks after administrating agents following operation, and to find out changes in immune system such as inflammation and necrosis of tissues, measured were white blood cell count, lymphocyte count, monocyte count, and granulocyte count (see: Table 7).

[6] = system: human osteoblast-like cell line Saos-2; experiment: Cell proliferation of Saos-2 cells, MTT method; type: cell-based; details: for MTT assay (% of control group): Saos-2, 3 days
Procedure: Saos-2 cell line which has similar properties to osteoblasts was obtained from Korean Cell Line Bank affiliated to the Cancer Research Institute of School of Medicine, Seoul National University.
Saos-2 cells were seeded in a RPMI 1640 medium (Gibco BRL, U.S.A.) supplemented with 10% (v/v) FBS, 100 unit/ml penicillin, 100 gg/ml streptomycin and grown to form a monolayer in an incubator at 37° C. under an environment of 5% (v/v) CO2 and saturated humidity. The culture was fed with fresh medium 2 to 3 times a week and subcultured once a week using 0.25% (w/v) trypsin.
Saos-2 cells were distributed into a 96-well plate (20,000 cells/well) and quercetin in 1% DMSO was added to a final concentration of 10-2 to 10^−9 mg/ml, 6 wells per each concentration. As a control group, cells without quercetin were used, and as a comparative group, the cells treated with various concentrations of genistein, being studied as a therapeutic agent for osteoporosis, were used. Cells were grown in an incubator at 37° C. for 3 days and incubated 4 more hours under the same condition after adding MTT (3-[4,5-dimethylthiazol-2-yl]-2,5-diphenyltetrazolium bromide, Triazolyl Blue) to a concentration of 0.05 mg/ml. Then, purple colored for-mazan formed in proportion to the number of viable cells was dissolved in DMSO and measured OD at 550 nm employing ELISA reader.
Cell proliferation rate (%) was evaluated by calculating the ratio of the OD of quercetin added well to the OD of control well, wherein, average value of ODs from 6 wells treated with the same concentration of quercetin was employed (see: Table 1).
cell proliferation rate (%)={(average value of OD at 550 nm of quercetin-treated wells—average value of OD at 550 nm of empty wells)/average value of OD at 550 nm of control wells}×100

## O=c1c(O)c(-c2ccc(O)c(O)c2)oc2cc(O)cc(O)c12 [Quercetin, quercetin]
Ovariectomized rats [1]
  TBA (trabecular bone area) of lumbars: 87.38 ± 4.53 ×10^4 μm^2
  Change Rate (%) of TBA of lumbars, of control group: 129.40 ± 6.71 %
Ovariectomized rats [1]; listed as quercetin
  Change Rate (%) of TBA of lumbars, of control group: 129%
Ovariectomized rats [2]
  TBA (trabecular bone area) of tibia: 55.52 ± 7.68 ×10^4 μm^2
  Change Rate (%) of TBA of tibia, of control group: 160.34 ± 22.17 %
Ovariectomized rats [2]; listed as quercetin
  Change Rate (%) of TBA of tibia, of control group: 160%
Ovariectomized rats [3]
  Concentration of ALP in plasma: 232.83 ± 20.27 U/dL
  Concentration of HDL-cholesterol in plasma: 53.38 ± 3.14 mg/dL
  Concentration of LDL-cholesterol in plasma: 24.17 ± 3.13 mg/dL
  Concentration of blood urea nitrogen (BUN): 17.05 ± 0.60 mg/dL
  Concentration of calcium in plasma: 10.73 ± 0.48 mg/dL
  Concentration of creatinin in plasma: 0.57 ± 0.05 mg/dL
  Concentration of inorganic phosphate in plasma: 6.79 ± 0.66 mg/dL
  Concentration of total cholesterol in plasma: 77.55 ± 5.13 mg/dL
[4]; 1 × 10^−2 mg/ml
  ALP activity (% of control group): 106.1 ± 4.3 % of control group
[4]; 1 × 10^−3 mg/ml
  ALP activity (% of control group): 107.3 ± 1.5 % of control group
[4]; 1 × 10^−4 mg/ml
  ALP activity (% of control group): 113.5 ± 2.3 % of control group
[4]; 1 × 10^−5 mg/ml
  ALP activity (% of control group): 116.5 ± 3.7 % of control group
[4]; 1 × 10^−6 mg/ml
  ALP activity (% of control group): 127.2 ± 3.5 % of control group
[4]; 1 × 10^−6 mg/ml, listed as quercetin
  ALP activity (% of control group): 127 % of control group
[4]; 1 × 10^−7 mg/ml
  ALP activity (% of control group): 101.2 ± 3.1 % of control group
[4]; 1 × 10^−8 mg/ml
  ALP activity (% of control group): 104.4 ± 3.9 % of control group
[4]; 1 × 10^−9 mg/ml
  ALP activity (% of control group): 98.1 ± 0.0 % of control group
[4]; maximum at 1×10^−6 mg/ml (quercetin) versus 1×10^−4 mg/ml (genistein)
  ALP activation effect relative to genistein: about 100 fold
Ovariectomized rats [5]
  Concentration of hemoglobin(Hb): 16.00 ± 0.30 g/dL
  Granulocyte count: 2.80 ± 0.30 ×10^3 cells/μl
  Hematocrit(Ht): 43.62 ± 0.83%
  Lymphocyte count: 16.78 ± 3.52 ×10^3 cells/μl
  Monocyte count: 0.65 ± 0.07 ×10^3 cells/μl
  Red blood cell(RBC) count: 7.29 ± 0.15 ×10^6 cells/μl
  White blood cell count: 20.28 ± 3.77 ×10^3 cells/μl
  White blood cell count, before versus after operation (in words): did not show any changes
[6]; Saos-2, 1×10^−9 to 1×10^−3 mg/ml
  Cell proliferation by MTT method versus control cells (in words): did not show any difference from the control cells
[6]; 1 × 10^−2 mg/ml
  MTT assay (% of control group): 108.6 ± 2.2 % of control group
[6]; 1 × 10^−2 mg/ml, listed as quercetin
  MTT assay (% of control group): 109 % of control group
[6]; 1 × 10^−3 mg/ml
  MTT assay (% of control group): 98.3 ± 0.8 % of control group
[6]; 1 × 10^−4 mg/ml
  MTT assay (% of control group): 96.5 ± 0.8 % of control group
[6]; 1 × 10^−5 mg/ml
  MTT assay (% of control group): 95.8 ± 1.1 % of control group
[6]; 1 × 10^−6 mg/ml
  MTT assay (% of control group): 96.0 ± 1.0 % of control group
[6]; 1 × 10^−7 mg/ml
  MTT assay (% of control group): 98.6 ± 1.0 % of control group
[6]; 1 × 10^−8 mg/ml
  MTT assay (% of control group): 93.9 ± 0.8 % of control group
[6]; 1 × 10^−9 mg/ml
  MTT assay (% of control group): 93.1 ± 0.8 % of control group
